Assays:
[1] = Acute toxicity in the rat; conditions: in vivo
Source text: The acute toxicity of YS 201 given by intraveous route, similar in the males and in the females in the rat as well as in the mouse, is as follows:
The acute toxicity of YS 201 given by oral route, similar in the males and in the females in the rat as well as in the mouse, is as follows: […]

[2] = system: SHR-SP; experiment: Effect on blood pressure in 6 month old SHR-SP (intraduodenal); assay type: in vivo, rat; parameters: DBP (dyastolic blood pressure) / MBP (mean blood pressure) / SBP (systolic blood pressure) / S-D (difference between systolic and diastolic blood pressure): unit not given here; conditions: 15 mg/kg intraduodenal
Source text: Comparative effect of YS 201 on 3 month old rats and 6 month old SHR-SP

[3] = system: Sprague-Dawley rats; experiment: Ventricular arrhythmias after re-circulation; assay type: in vivo, rat
Description: Ventricular arrhythmias after coronary artery ligation in the acute phase or during the period of re-circulation
Sprague-Dawley rats were subjected to ligation of the left coronary artery according to the method of Clark et al. in J. Pharmacol. Methods 3, 357-368, 1980. The drugs were administered by gastric tube 30 minutes before the ligation. By means of a continuous electrocardiographic recording, the ventricular arrhythmias such as ectopic beats (EB), ventricular tachycardia (VT), ventricular fibrillation (VF) for 30 minutes after ligation, were recorded.

SMILES: CCOC(=O)C1=C(C)NC(C)=C(C(=O)OCCN2CCCCC2)C1c1cccc([N+](=O)[O-])c1 (stereo not drawn) [YS 201, ethyl-(β-piperidinoethyl)-2,6-dimethyl-4-(3-nitrophenyl)-1,4-dihydropyridine-3,5-dicarboxylate]
- LD50 ([1]; iv): 12.5 mg/kg
- LD50 ([1]; po): 402 mg/kg
- duration of blood pressure effect [2]: 4 h
- DBP (dyastolic blood pressure) ([2]; 0 min (baseline)): 17.5
- HR (heart rate) ([2]; 0 min (baseline)): 360 beats/min
- MBP (mean blood pressure) ([2]; 0 min (baseline)): 20.0
- S-D (difference between systolic and diastolic blood pressure) ([2]; 0 min (baseline)): 7.5
- SBP (systolic blood pressure) ([2]; 0 min (baseline)): 25.0
- DBP (dyastolic blood pressure) ([2]; +1 min): 17.0
- HR (heart rate) ([2]; +1 min): 360 beats/min
- MBP (mean blood pressure) ([2]; +1 min): 19.3
- S-D (difference between systolic and diastolic blood pressure) ([2]; +1 min): 7.0
- SBP (systolic blood pressure) ([2]; +1 min): 24.0
- DBP (dyastolic blood pressure) ([2]; +2 min): 15.0
- HR (heart rate) ([2]; +2 min): 360 beats/min
- MBP (mean blood pressure) ([2]; +2 min): 17.5
- S-D (difference between systolic and diastolic blood pressure) ([2]; +2 min): 7.5
- SBP (systolic blood pressure) ([2]; +2 min): 22.5
- DBP (dyastolic blood pressure) ([2]; +5 min): 16.0
- HR (heart rate) ([2]; +5 min): 360 beats/min
- MBP (mean blood pressure) ([2]; +5 min): 18.7
- S-D (difference between systolic and diastolic blood pressure) ([2]; +5 min): 8.0
- SBP (systolic blood pressure) ([2]; +5 min): 24.0
- DBP (dyastolic blood pressure) ([2]; +10 min): 13.5
- HR (heart rate) ([2]; +10 min): 360 beats/min
- MBP (mean blood pressure) ([2]; +10 min): 16.2
- S-D (difference between systolic and diastolic blood pressure) ([2]; +10 min): 8.0
- SBP (systolic blood pressure) ([2]; +10 min): 21.5
- DBP (dyastolic blood pressure) ([2]; +15 min): 13.0
- HR (heart rate) ([2]; +15 min): 360 beats/min
- MBP (mean blood pressure) ([2]; +15 min): 15.7
- S-D (difference between systolic and diastolic blood pressure) ([2]; +15 min): 8.0
- SBP (systolic blood pressure) ([2]; +15 min): 21.0
- DBP (dyastolic blood pressure) ([2]; +30 min): 11.0
- HR (heart rate) ([2]; +30 min): 340 beats/min
- MBP (mean blood pressure) ([2]; +30 min): 13.7
- S-D (difference between systolic and diastolic blood pressure) ([2]; +30 min): 8.0
- SBP (systolic blood pressure) ([2]; +30 min): 19.0
- DBP (dyastolic blood pressure) ([2]; +60 min): 10.0
- HR (heart rate) ([2]; +60 min): 300 beats/min
- MBP (mean blood pressure) ([2]; +60 min): 12.0
- S-D (difference between systolic and diastolic blood pressure) ([2]; +60 min): 7.0
- SBP (systolic blood pressure) ([2]; +60 min): 17.0
- DBP (dyastolic blood pressure) ([2]; +120 min): 11.5
- HR (heart rate) ([2]; +120 min): 360 beats/min
- MBP (mean blood pressure) ([2]; +120 min): 13.5
- S-D (difference between systolic and diastolic blood pressure) ([2]; +120 min): 6.0
- SBP (systolic blood pressure) ([2]; +120 min): 17.5
- DBP (dyastolic blood pressure) ([2]; +180 min): 8.0
- HR (heart rate) ([2]; +180 min): 400 beats/min
- MBP (mean blood pressure) ([2]; +180 min): 9.8
- S-D (difference between systolic and diastolic blood pressure) ([2]; +180 min): 5.5
- SBP (systolic blood pressure) ([2]; +180 min): 13.5
- DBP (dyastolic blood pressure) ([2]; +240 min): 6.0
- HR (heart rate) ([2]; +240 min): 420 beats/min
- MBP (mean blood pressure) ([2]; +240 min): 7.5
- S-D (difference between systolic and diastolic blood pressure) ([2]; +240 min): 4.5
- SBP (systolic blood pressure) ([2]; +240 min): 10.5
- Death rate % ([3]; 7.5 mg/kg p.o.): 10%
- EBs, mean value of indices + SEM ([3]; 7.5 mg/kg p.o.): 42.8 ± 10.08
- VF % ([3]; 7.5 mg/kg p.o.): 60%
- VF, mean value of indices + SEM ([3]; 7.5 mg/kg p.o.): 1.3 ± 0.52
- VT, mean value of indices + SEM ([3]; 7.5 mg/kg p.o.): 2.2 ± 1.70
- Death rate % ([3]; 15 mg/kg p.o.): 0%
- EBs, mean value of indices + SEM ([3]; 15 mg/kg p.o.): 27.20 ± 5.87
- VF % ([3]; 15 mg/kg p.o.): 50%
- VF, mean value of indices + SEM ([3]; 15 mg/kg p.o.): 0.6 ± 0.33
- VT, mean value of indices + SEM ([3]; 15 mg/kg p.o.): 1.2 ± 0.39

From patent US4826856A, “Calcium antagonistic dihydropyridine derivative” (Yason s.r.l., priority 1985, dated 1989)
